{"source": "paper PMC8795197", "about": "“Safety and activity of WX-0593 (Iruplinalkib) in patients with ALK- or ROS1-rearranged advanced non-small cell lung cancer: a phase 1 dose-escalation and dose-expansion trial” (Signal Transduction and Targeted Therapy, 2022)", "tested_on": "advanced NSCLC patients with ALK or ROS1 rearrangement", "test": "Phase 1 dose-expansion phase: antitumor activity (RECIST 1.1, investigators)", "format": "in vivo, human", "conditions": "for intracranial objective response rate: Baseline measurable CNS metastasis; for DOR, median (95% CI) / PFS, median (95% CI) / TTP, median (95% CI) / DCR (95% CI) / ORR (95% CI) / PFS, number of events (%): ALK-positive patients", "description": "Patients continued treatment until documented disease progression, unacceptable toxicity, withdrawal of consent, the start of a new anticancer treatment, death, loss of follow-up, or end of the study (whichever occurred first). Patients were permitted to continue treatment after progression if they were still experiencing clinical benefit, at the discretion of the investigator. Patients performed imaging evaluation at baseline, with computed tomography or magnetic resonance imaging of the chest, abdomen, pelvis, and brain. In the dose-escalation phase, the first efficacy evaluation was done after 3-week continuous administration of WX-0593 and every 6 weeks thereafter. […] AEs were assessed in all patients throughout this study and graded per the National Cancer Institute Common Terminology Criteria for Adverse Events version 4.03. In the dose-expansion phase, the primary endpoint was ORR assessed by investigators. Other key secondary endpoints included PFS, DCR, time to progression (TTP), DOR, intracranial response, and safety. Additionally, overall survival (OS) was assessed as a prespecified exploratory endpoint. ORR was defined as the proportion of patients who had best overall response, including CR or PR. PFS was calculated from the date of the first dose of WX-0593 to the date of documented disease progression or death (whichever occurred first). DCR was defined as the proportion of patients who had best overall response, including CR, PR, or SD, with a duration of at least 12 weeks. TTP was calculated from the date when the first dose of WX-0593 was given to first documented disease progression. […] OS was calculated from the date when the first dose of WX-0593 was administered to the date of death from any cause. Safety analysis was performed in the SS, which was comprised of all patients treated with one dose of WX-0593 and with safety data recorded. Efficacy analysis was performed in the FAS, which was defined as all patients treated with at least one dose of WX-0593. The PK analysis set included all patients treated with at least one dose of WX-0593 and with at least one evaluable PK sample. […] Descriptive statistics were carried out to summarize patients’ baseline characteristics and safety. […] All time-to-event data (PFS, TTP, DOR, and OS) and their corresponding 95% CIs were estimated by Kaplan–Meier methods. PK parameter analyses were done with Phoenix WinNonlin version 8.0. All other statistical analyses were conducted using SAS version 9.4.", "key": {"[1]": {"conditions": "ALK-rearranged, crizotinib as the only ALK TKI"}}, "note": "“Also recorded” adds a separate entry of the source."}
{"molecule": "COc1cc(N2CCC3(CCN(C)CC3)CC2)ccc1Nc1ncc(Cl)c(Nc2ccccc2P(C)(C)=O)n1", "note": "[WX-0593]", "values": [{"measurement": "objective response rate", "setting": "120mg, ALK-rearranged patients", "value": "53.2% (25/47, 38.1-67.9%)"}, {"measurement": "objective response rate", "setting": "120mg, ALK-rearranged patients, ALK TKI naive", "value": "76.5% (13/17, 50.1-93.2%)"}, {"measurement": "objective response rate", "setting": "120mg, ALK-rearranged patients, ALK TKI naive, chemotherapy naïve", "value": "75.0%(6/8, 34.9-96.8%)"}, {"measurement": "objective response rate", "setting": "120mg, ALK-rearranged patients, ALK TKI naive, received chemotherapy before", "value": "77.8% (7/9, 40.0-97.2%)"}, {"measurement": "objective response rate", "setting": "120mg, ALK-rearranged patients, Crizotinib and other ALK TKIs", "value": "0 (0/2, 0-84.2%)"}, {"measurement": "objective response rate", "setting": "120mg, ALK-rearranged patients, Crizotinib only", "value": "44.4% (12/27, 25.5-64.7%)"}, {"measurement": "objective response rate", "setting": "120mg, ALK-rearranged patients, Other ALK TKIs", "value": "0 (0/1, 0-97.5%)"}, {"measurement": "objective response rate", "setting": "120mg, Baseline CNS metastasis", "value": "22.9% (8/35, 10.4-40.1%)"}, {"measurement": "objective response rate", "setting": "120mg, Baseline CNS metastasis, ALK TKI naive", "value": "23.1% (3/13, 5.0-53.8%)"}, {"measurement": "objective response rate", "setting": "120mg, Baseline CNS metastasis, Crizotinib only", "value": "25.0% (5/20, 8.7-49.1%)"}, {"measurement": "objective response rate", "setting": "120mg, Baseline CNS metastasis, Radiotherapy before", "value": "16.7% (2/12, 2.1-48.4%)"}, {"measurement": "objective response rate", "setting": "120mg, Baseline CNS metastasis, Radiotherapy naïve", "value": "26.1% (6/23, 10.2-48.4%)"}, {"measurement": "intracranial objective response rate", "setting": "120mg", "value": "45.5% (2/11, 16.7-76.6%)"}, {"measurement": "intracranial objective response rate", "setting": "120mg, ALK TKI naive", "value": "33.3% (1/3, 0.8-90.6%)"}, {"measurement": "intracranial objective response rate", "setting": "120mg, Crizotinib only", "value": "50.0% (4/8, 15.7-84.3%)"}, {"measurement": "intracranial objective response rate", "setting": "120mg, Radiotherapy before", "value": "28.6% (2/7, 3.7-71.0%)"}, {"measurement": "intracranial objective response rate", "setting": "120mg, Radiotherapy naïve", "value": "75.0% (3/4, 19.4-99.4%)"}, {"measurement": "objective response rate", "setting": "120mg, Prior ALK TKI treatment: Crizotinib and other ALK TKI", "value": "0 (0/2, 0-84.2%)"}, {"measurement": "objective response rate", "setting": "120mg, Prior ALK TKI treatment: Crizotinib only", "value": "41.4% (12/29, 23.5-61.1%)"}, {"measurement": "objective response rate", "setting": "120mg, ROS1-rearranged patients", "value": "0 (0/3, 0-70.8%)"}, {"measurement": "objective response rate", "setting": "120mg, ROS1-rearranged patients, Crizotinib naive", "value": "0 (0/1, 0-97.5%)"}, {"measurement": "objective response rate", "setting": "120mg, ROS1-rearranged patients, Received Crizotinib before", "value": "0 (0/2, 0-84.2%)"}, {"measurement": "objective response rate", "setting": "120mg, dose expansion phase, Prior ALK TKI treatment: ALK TKI naive", "value": "72.2% (13/18, 46.5-90.3%)"}, {"measurement": "objective response rate", "setting": "180mg, ALK-rearranged patients", "value": "63.6% (28/44, 47.8-77.6%)"}, {"measurement": "objective response rate", "setting": "180mg, ALK-rearranged patients, ALK TKI naive", "value": "76.2% (16/21, 52.8-91.8%)"}, {"measurement": "objective response rate", "setting": "180mg, ALK-rearranged patients, ALK TKI naive, chemotherapy naïve", "value": "91.7% (11/12, 61.5-99.8%)"}, {"measurement": "objective response rate", "setting": "180mg, ALK-rearranged patients, ALK TKI naive, received chemotherapy before", "value": "55.6% (5/9, 21.2-86.3%)"}, {"measurement": "objective response rate", "setting": "180mg, ALK-rearranged patients, Crizotinib and other ALK TKIs", "value": "66.7% (2/3, 9.4-99.2%)"}, {"measurement": "objective response rate", "setting": "180mg, ALK-rearranged patients, Crizotinib only", "value": "47.4% (9/19, 24.4-71.1%)"}, {"measurement": "objective response rate", "setting": "180mg, ALK-rearranged patients, Other ALK TKIs", "value": "100% (1/1, 2.5-100.0%)"}, {"measurement": "objective response rate", "setting": "180mg, Baseline CNS metastasis, ALK TKI naive", "value": "28.6% (2/7, 3.7-71.0%)"}, {"measurement": "objective response rate", "setting": "180mg, Baseline CNS metastasis, Crizotinib only", "value": "15.4% (2/13, 1.9-45.4%)"}, {"measurement": "objective response rate", "setting": "180mg, Baseline CNS metastasis, Radiotherapy before", "value": "0 (0/7, 0-41.0%)"}, {"measurement": "objective response rate", "setting": "180mg, Baseline CNS metastasis, Radiotherapy naïve", "value": "31.3% (5/16, 11.0-58.7%)"}, {"measurement": "intracranial objective response rate", "setting": "180mg", "value": "50.0% (2/4, 6.8-93.2%)"}, {"measurement": "intracranial objective response rate", "setting": "180mg, ALK TKI naive", "value": "100% (1/1, 2.5-100%)"}, {"measurement": "intracranial objective response rate", "setting": "180mg, Crizotinib only", "value": "50.0% (1/2, 1.3-98.7%)"}, {"measurement": "intracranial objective response rate", "setting": "180mg, Radiotherapy naïve", "value": "31.3% (5/16, 11.0-58.7%)"}, {"measurement": "objective response rate", "setting": "180mg, Prior ALK TKI treatment: Crizotinib and other ALK TKI", "value": "66.7% (2/3, 9.4-99.2%)"}, {"measurement": "objective response rate", "setting": "180mg, Prior ALK TKI treatment: Crizotinib only", "value": "42.9% (9/21, 21.8-66.0%)"}, {"measurement": "objective response rate", "setting": "180mg, ROS1-rearranged patients", "value": "66.7% (4/6, 22.3-95.7%)"}, {"measurement": "objective response rate", "setting": "180mg, ROS1-rearranged patients, Crizotinib naive", "value": "100% (4/4, 39.8-100%)"}, {"measurement": "objective response rate", "setting": "180mg, ROS1-rearranged patients, Received Crizotinib before", "value": "0 (0/2, 0-84.2%)"}, {"measurement": "objective response rate", "setting": "180mg, dose expansion phase, Prior ALK TKI treatment: ALK TKI naive", "value": "79.2% (19/24, 57.8-92.9%)"}, {"measurement": "DCR", "setting": "ALK TKI naive", "value": 92.9, "unit": "%"}, {"measurement": "ORR", "setting": "ALK TKI naive", "value": 76.2, "unit": "%"}, {"measurement": "median PFS", "setting": "ALK TKI naive", "value": "not reached"}, {"measurement": "DOR, median (95% CI)", "setting": "120 mg", "value": "NR (5.52, NR)"}, {"measurement": "PFS, median (95% CI)", "setting": "120 mg", "value": "NR (6.87, NR)"}, {"measurement": "TTP, median (95% CI)", "setting": "120 mg", "value": "NR (6.87, NR)"}, {"measurement": "DCR (95% CI)", "setting": "120 mg (n=47)", "value": "83.0% (69.2%, 92.4%)"}, {"measurement": "ORR (95% CI)", "setting": "120 mg (n=47)", "value": "53.2% (38.1%, 67.9%)"}, {"measurement": "PFS, number of events (%)", "setting": "120 mg (n=47)", "value": "12 (25.5%)"}, {"measurement": "DOR, median (95% CI)", "setting": "180 mg", "value": "NR (5.49, NR)"}, {"measurement": "PFS, median (95% CI)", "setting": "180 mg", "value": "NR (NR, NR)"}, {"measurement": "TTP, median (95% CI)", "setting": "180 mg", "value": "NR (NR, NR)"}, {"measurement": "DCR (95% CI)", "setting": "180 mg (n=44)", "value": "88.6% (75.4%, 96.2%)"}, {"measurement": "ORR (95% CI)", "setting": "180 mg (n=44)", "value": "63.6% (47.8%, 77.6%)"}, {"measurement": "PFS, number of events (%)", "setting": "180 mg (n=44)", "value": "8 (18.2%)"}, {"measurement": "DOR, median (95% CI)", "setting": "total", "value": "NR (5.65, NR)"}, {"measurement": "PFS, median (95% CI)", "setting": "total", "value": "not reached (95% CI 6.93 months to NR); also recorded: NR (6.93, NR)"}, {"measurement": "TTP, median (95% CI)", "setting": "total", "value": "NR (6.93, NR)"}, {"measurement": "PFS, number of events (%)", "setting": "total (n=91)", "value": "20 (22.0%)"}, {"measurement": "patients who achieved SD", "setting": "ALK-rearranged patients (n = 91)", "value": "Twenty-five"}, {"measurement": "ORR", "setting": "ALK-rearranged, ALK TKI naive", "value": 76.3, "unit": "%"}, {"measurement": "ORR", "setting": "ALK-rearranged, ALK TKI naive, chemotherapy-naive", "value": 85.0, "unit": "%"}, {"measurement": "ORR", "setting": "ALK-rearranged, ALK TKI naive, received chemotherapy", "value": 66.7, "unit": "%"}, {"measurement": "ORR", "setting": "[1]", "value": 45.7, "unit": "%"}, {"measurement": "median PFS", "setting": "[1]", "value": 6.9, "unit": "months"}, {"measurement": "patients who achieved PR, n (%)", "setting": "FAS n = 99", "value": "56 (56.6%)"}, {"measurement": "patients with progressive disease, n (%)", "setting": "FAS n = 99", "value": "8 (8.1%)"}, {"measurement": "patients with stable disease (SD), n (%)", "setting": "FAS n = 99", "value": "27 (27.3%)"}]}
